Assay [1] deals with bovine microtubule-associated protein (MAP)-rich tubulin. The class given is biochemical. As for the experimental part: Tubulin Polymerization Assays. For in vitro tubulin polymerization assays, bovine microtubule-associated protein (MAP)-rich tubulin, PEM buffer [80 mM Na-PIPES (pH 6.9), 1 mM MgCl2, and 1 mM EGTA], and GTP are purchased from Cytoskeleton (Denver, Colo.). MAP-rich tubulin (final concentration 1.5 mg/ml) is dissolved in cold PEM buffer containing 1 mM GTP (GPEM) and centrifuged at 12,000×g for 10 min at 4° C. The tubulin solution (100 μl/well) is added rapidly to wells of a low-volume, 96-well plate already containing duplicate aliquots (10 μl) of test compounds in GPEM. […] Control wells contained the same final concentration of DMSO (0.3%). After initiation of the reaction, absorbance at 340 nm is measured every minute for 60 min at 24° C. using a SpectraMax Plus plate reader (Molecular Devices, Sunnyvale, Calif.).

The next assay relates to KB cells. Description: cells. It counts as cell-based. The following applies: for IC50: 3 days, SRB. As for the experimental part: (§1) Cell Survival Assay: Standard Pharmacological Test Procedure. […] Compounds are incubated with cells for 3 days.
The next assay concerns KB85. Description: cells. The class given is cell-based. The following applies: for IC50: 3 days, SRB. On the procedure: as §1
A further assay relates to KBV1. Put plainly: cells. It counts as cell-based. The conditions noted are these: for IC50: 3 days, SRB; for inhibition at 3 µM: KB-V1, 3000 nM. On the procedure:
as §1

The values that follow come from patent US7390910B2, “Compounds for treating tumors” (priority 2003, dated 2008).

Marks after values point to notes of the source that are not given here.

As to `CN[C@H](C(=O)N[C@H](C(=O)N(C)[C@H](/C=C1/C(=O)NC(=O)N1C)C(C)C)C(C)(C)C)C(C)(C)c1ccccc1` [Example 89, N,β,β-trimethyl-L-phenylalanyl-N^1,3-dimethyl-N^1-{(1S)-2-methyl-1-[(Z)-(3-methyl-2,5-dioxoimidazolidin-4-ylidene)methyl]propyl}-L-valinamide], in assay [1], the “Tubulin Polym. % inhibition at 0.3 uM” value came to 95%. Besides, the IC50 with KB cells (Homo sapiens, KB, 72 h) is 5.1 nM; in the assay on KB85 (72 h), 9.9 nM; in the assay on KBV1 (Homo sapiens, KB-V1, 72 h) it was 230 nM.

Consider `CN[C@H](C(=O)N[C@H](C(=O)N(C)[C@H](/C=C(\C)C(=O)O)C(C)C)C(C)(C)C)C12CC3CC(CC(C3)C1)C2` [Example 55, (2E,4S)-4-[{N-[(2S)-2-(1-adamantyl)-2-(methylamino)ethanoyl]-3-methyl-L-valyl}(methyl)amino]-2,5-dimethyl-2-hexenoic acid], for which the “Tubulin Polym. % inhibition at 0.3 uM” value in assay [1] was determined as 66%. For the same compound, the IC50 in the assay on KB cells (Homo sapiens, KB, 72 h) was 603 nM; with KB85 (72 h), 646 nM. Further, in the assay on KBV1 (Homo sapiens), the inhibition at 3 µM was 13%.

For `CN[C@H](C(=O)N[C@H](C(=O)N(C)[C@H](/C=C(\C)C(=O)N1CCC[C@H]1C(=O)N1CCC[C@H]1C(=O)NCc1ccccc1)C(C)C)C(C)(C)C)C(C)(C)c1cc(C)cc(C)c1` [Example 11, 1-{(2E,4S)-2,5-Dimethyl-4-[methyl(N,β,β,3,5-pentamethyl-L-phenylalanyl-3-methyl-L-valyl)amino]hex-2-enoyl}-L-prolyl-N-benzyl-L-prolinamide], the “Tubulin Polym. % inhibition at 0.3 uM” value in assay [1] worked out at 41%. The IC50 was determined as 0.56 nM with KB cells (Homo sapiens, KB, 72 h) and 24 nM with KB85 (72 h). The inhibition at 3 µM with KBV1 (Homo sapiens) came to 8%.

Take `CN[C@H](C(=O)N[C@H](C(=O)N(C)[C@H](/C=C(\C)CO)C(C)C)C(C)(C)C)C(C)(C)c1ccccc1` [Example 81]: the “Tubulin Polym. % inhibition at 0.3 uM” value in assay [1] came out at 71%. Besides, the IC50 is 454 nM with KB cells, 447 nM with KB85 and 1590 nM in the assay on KBV1.

With `CCOP(=O)(OCC)/C(C)=C/[C@H](C(C)C)N(C)C(=O)[C@@H](NC(=O)[C@@H](NC)C(C)(C)c1ccccc1)C(C)(C)C` [Example 71, N,β,β-trimethyl-L-phenylalanyl-N^1-[(1S,2E)-3-(diethoxyphosphoryl)-1-isopropyl-but-2-enyl]-N^1,3-dimethyl-L-valinamide], the “Tubulin Polym. % inhibition at 0.3 uM” value in assay [1] was 64%. For the same compound, the IC50 in the assay on KB cells (Homo sapiens, KB, 72 h) came out at 1300 nM; in the assay on KB85 (72 h), 1750 nM. For the same compound, the inhibition at 3 µM in the assay on KBV1 (Homo sapiens) was found to be 0%.

As to `CN[C@H](C(=O)N[C@H](C(=O)N(C)[C@H](/C=C(\C)C(C)O)C(C)C)C(C)(C)C)C(C)(C)c1ccccc1` (stereo partly drawn) [Example 78, N,β,β-trimethyl-L-phenylalanyl-N-1-[(1S,2E)-4-hydroxy-1-isopropyl-3-methylpent-2-enyl]-N-1,3-dimethyl-L-valinamide], the “Tubulin Polym. % inhibition at 0.3 uM” value in assay [1] came to 75%. In addition, the 50% inhibitory concentration (IC50) in the assay with KB cells came out at 63 nM; in the assay with KB85 it was 172 nM; in the assay with KBV1, 1460 nM.

Regarding `CN[C@H](C(=O)N[C@H](C(=O)N(C)[C@H](/C=C(\C)C(=O)N1CCC[C@H]1C(=O)O)C(C)C)C(C)(C)C)C(C)(C)c1cccc(C)c1` [Example 22, N,β,β,3-Tetramethyl-L-phenylalanyl-N^1-{(1S,2E)-4-[(2S)-2-carboxypyrrolidin-1-yl]-1-isopropyl-3-methyl-4-oxobut-2-enyl}-N^1,3-dimethyl-L-valinamide], in assay [1], the “Tubulin Polym. % inhibition at 0.3 uM” value turned out to be 95%. The IC50 turned out to be 70 nM in the assay on KB cells (Homo sapiens, KB, 72 h) and 599 nM with KB85 (72 h). In addition, in the assay on KBV1 (Homo sapiens), the inhibition at 3 µM was determined as 12%.

Turning to `CN[C@H](C(=O)N[C@H](C(=O)N(C)[C@H](/C=C(/C)S(=O)(=O)O)C(C)C)C(C)(C)C)C(C)(C)c1ccccc1` [Example 67, N,β,β-trimethyl-L-phenylalanyl-N^1-[(1S,2Z)-1-isopropyl-3-sulfobut-2-enyl]-N^1,3-dimethyl-L-valinamide], the “Tubulin Polym. % inhibition at 0.3 uM” value in assay [1] amounted to 21%. Besides, the inhibition at 3 µM in the assay with KB cells (Homo sapiens, 72 h, 3000 nM) came to 0%; in the assay with KB85 (3000 nM), 0%; in the assay with KBV1 (Homo sapiens), 0%.

In the case of `CN[C@@H](C(=O)N[C@H](C(=O)N(C)[C@H](/C=C(\C)C(=O)N1CCOCC1)C(C)C)C(C)(C)C)C(C)(C)c1ccc(C)c(C)c1` [Example 4, N,β,β,3,4-Pentamethyl-D-phenylalanyl-N^1[(1S,2E)-1-isopropyl-3-methyl-4-morpholin-4-yl-4-oxobut-2-enyl]-N^1,3-dimethyl-L-valinamide], in assay [1], the “Tubulin Polym. % inhibition at 0.3 uM” value stood at 61%. Moreover, the IC50 is 375 nM in the assay with KB cells (Homo sapiens, KB, 72 h) and 536 nM in the assay on KB85 (72 h). Also, in the assay with KBV1 (Homo sapiens), the inhibition at 3 µM was 42%.

For the compound `CN[C@H](C(=O)N[C@H](C(=O)N(C)[C@H](/C=C(\C)C(=O)N1CCN(C)CC1)C(C)C)C(C)(C)C)C(C)(C)c1cccc(C)c1.O=C(O)C(F)(F)F` [Example 6, N,β,β,3-Tetramethyl-L-phenylalanyl-N^1-[(1S,2E)-1-isopropyl-3-methyl-4-(4-methylpiperazin-1-yl)-4-oxobut-2-enyl]-N^1,3-dimethyl-L-valinamide trifluoroacetic acid salt], the “Tubulin Polym. % inhibition at 0.3 uM” value in assay [1] came out at 64%. Further, the IC50 turned out to be 64 nM with KB cells (Homo sapiens, KB, 72 h) and 123 nM with KB85 (72 h). Also, 3 µM produced 33% inhibition in the assay on KBV1 (Homo sapiens).

`CN[C@H](C(=O)N[C@H](C(=O)N(C)[C@H](/C=C(\C)C(=O)N1CCC[C@H]1C(=O)O)C(C)C)C(C)(C)C)C(C)(C)c1cccc(Cl)c1` [Example 24, 3-Chloro-N,β,β-trimethyl-L-phenylalanyl-N^1-{(1S,2E)-4-[(2S)-2-carboxypyrrolidin-1yl]-1-isopropyl-3-methyl-4-oxobut-2-enyl}-N^1,3-dimethyl-L-valinamide]: the “Tubulin Polym. % inhibition at 0.3 uM” value in assay [1] came out at 94%. The IC50 in the assay with KB cells (Homo sapiens, KB, 72 h) turned out to be 62 nM; in the assay on KB85 (72 h), 180 nM. Besides, at 3 µM the inhibition with KBV1 (Homo sapiens) was 17%.

Turning to `CN[C@H](C(=O)N[C@H](C(=O)N(C)[C@H](/C=C(\C)C(=O)N1CCC[C@H]1C(=O)O)C(C)C)C(C)(C)C)C(C)(C)c1ccccc1` [Example 36, N,β,β-trimethyl-L-phenylalanyl-N^1-{(1S,2E)-4-[(2S)-2-carboxypyrrolidin-1-yl]-1-isopropyl-3-methyl-4-oxobut-2-enyl}-N^1,3-dimethyl-L-valinamide], the “Tubulin Polym. % inhibition at 0.3 uM” value in assay [1] is 97%. The IC50 in the assay with KB cells (Homo sapiens, KB, 72 h) was found to be 62 nM; in the assay with KB85 (72 h), 205 nM. The inhibition at 3 µM in the assay with KBV1 (Homo sapiens) was 0%.

In the case of `CN[C@H](C(=O)N[C@H](C(=O)N(C)[C@H](/C=C(\C)C(=O)c1ccccc1)C(C)C)C(C)(C)C)C(C)(C)c1ccccc1` [Example 80, N,β,β-trimethyl-L-phenylalanyl-N-1-[(1S,2E)-1-isopropyl-3-methyl-4-oxo-4-phenylbut-2-enyl]-N-1,3-dimethyl-L-valinamide], the “Tubulin Polym. % inhibition at 0.3 uM” value in assay [1] is listed as 70%. For the same compound, the IC50 with KB cells came to 725 nM; in the assay with KB85 it was 1330 nM; in the assay with KBV1, 1800 nM.

Turning to `CNC(C(=O)NC(C(=O)N(C)C(C=C(C)C=C(C)C(=O)O)C(C)C)C(C)(C)C)C(C)(C)c1ccccc1` (centres unmarked) [Example 79, 6-{[3,3-Dimethyl-2-(3-methyl-2-methylamino-3-phenyl-butyrylamino)-butyryl]-methyl-amino}-2,4,7-trimethyl-octa-2,4-dienoic acid], in assay [1] (0.5 uM), the “Tubulin Polym. % inhibition at 0.5 uM” value was 90*** %. The IC50 was 27 nM with KB cells (Homo sapiens, KB, 72 h); 53 nM with KB85 (72 h); 1580 nM in the assay on KBV1 (Homo sapiens, KB-V1, 72 h).

Usually IC50 stands for the point on the concentration scale where inhibition reaches its midpoint. By inhibition is commonly meant the share of the control response that was lost under treatment.
